According to patent US10674724B2, “Method of activating immune response in plants” (priority 2012, dated 2020):

What was measured:
BTB/POZ-Δ513 interaction = target: T1, BTB/POZ-Δ513 interaction (Arabidopsis thaliana, UniProt P93002); experiment: BTB/POZ-Δ513 pull-down assay; type: biochemical; parameters: made in house; host or cells: E. coli; settings: 1 mM SA
T1 sequence (P93002 513-593): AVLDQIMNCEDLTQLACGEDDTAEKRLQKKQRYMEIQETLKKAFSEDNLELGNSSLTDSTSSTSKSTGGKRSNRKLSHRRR
Protocol: The BTB/POZ (amino acids 1-190 of NPR1) was expressed in E. coli as a C-terminal fusion to the Strep-Tag according to standard protocols. The Δ513 of NPR1 was expressed as an N-terminal fusion to the HA-Tag as described above. The VLRSgt (as described in Hall et al. (2007) Plant J 49, 579-591) was expressed in E. coli as an N-terminal fusion to the GST-Tag according to standard protocols. The pull-down assay was performed in the Strep-Tactin buffer. The antibodies used for detecting the tags in the BTB/POZ-Strep was from Qiagen (catalog #34850) and those used for the tags in HA-Δ513 or the GST-VLRSgt were from Santa Cruz Biotechnology (catalog #: sc-7392 and sc-138).
Given that the plant two-hybrid system is an in vivo method of analysis, an indirect effect of SA on the interaction of the BTB/POZ and the C-terminus of NPR1 cannot be ruled out. Thus, the interaction in vitro in a pull-down assay (FIG. 8) was tested. […] As negative controls, first an unrelated protein (VLRSgt) was shown not to interact with BTB/POZ (FIG. 5D) and secondly Δ513 was shown not to interact with the solid support in the absence of BTB/POZ (FIG. 5E).

NPR1 [1] = target: T2, NPR1 (Arabidopsis thaliana, UniProt P93002); experiment: Sephacryl S300 gel filtration of Strep-tagged NPR1; type: biochemical
T2 construct: made in house; host or cells: E. coli
Protocol: Strep-tagged purified proteins in a final volume of 2 ml were subjected to gel filtration analysis on the Sephacryl S100 HR or Sephacryl S300 HR packed in 50 cm long HR 16 columns (GE Health) and equilibrated with S300 chromatography buffer (50 mM HEPES, pH 7.4, 250 mM NaCl. Elutions, in 0.5 ml fractions, were performed in the same buffer at a flow rate of 0.8 ml/min. Where indicated, proteins were incubated with 1 mM SA, 1 mM catechol, 1 mM 4-hydroxy benzoic acid, or 1 mM methyl-salicylate at room temperature for 30 min prior to chromatography as described above with the exception that the chromatography buffer was supplemented with 1 mM SA, 1 mM catechol, 1 mM 4-hydroxy benzoic acid, or 1 mM methyl-salicylate, respectively. In the case of the EDTA treatment, NPR1 was stripped of its metal by a 50 mM EDTA treatment of 30 min, followed by an incubation of 30 min with 1 mM SA prior to gel filtration. In this case, the chromatography buffer was supplemented with 1 mM SA.

NPR1 [2] = target: T2, NPR1; type: binding; settings: equilibrium dialysis
Protocol: Given the dissociation reaction:
The data was analyzed by non-linear regression using GraphPad PRISM 4 and fitted to a one-site-binding rectangular hyperbola.

[3] = target: T3, NPR1-dependent oligomer on the PR-1 promoter (Arabidopsis thaliana, UniProt P93002); experiment: Cross-linked-chromatin chromatography (3C Method); type: in vivo; settings: wild-type plants, region −734 to −833
T3 construct: in wild-type plants (WT), such an oligomer forms on the PR-1 promoter; endogenous in cells; host or cells: wild-type Arabidopsis plants
T3 sequence (P93002 1-593): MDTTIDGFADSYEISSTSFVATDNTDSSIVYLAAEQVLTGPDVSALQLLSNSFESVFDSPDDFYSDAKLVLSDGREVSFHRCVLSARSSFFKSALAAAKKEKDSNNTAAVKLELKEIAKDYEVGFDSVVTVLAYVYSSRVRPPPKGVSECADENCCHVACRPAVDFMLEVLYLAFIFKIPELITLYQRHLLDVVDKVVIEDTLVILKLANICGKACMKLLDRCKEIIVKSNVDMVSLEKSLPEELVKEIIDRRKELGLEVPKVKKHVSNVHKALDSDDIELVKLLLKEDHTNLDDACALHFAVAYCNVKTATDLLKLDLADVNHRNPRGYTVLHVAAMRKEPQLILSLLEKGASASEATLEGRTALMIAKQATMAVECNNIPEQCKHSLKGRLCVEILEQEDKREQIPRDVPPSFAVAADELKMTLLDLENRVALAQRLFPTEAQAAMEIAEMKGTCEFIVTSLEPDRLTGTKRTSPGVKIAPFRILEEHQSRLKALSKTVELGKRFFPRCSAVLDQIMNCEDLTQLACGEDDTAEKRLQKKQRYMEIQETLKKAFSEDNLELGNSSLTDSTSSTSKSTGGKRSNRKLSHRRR
Protocol: Plant treatment, cross-linking, sonication, and cross-linking reversal were performed as for chromatin-immunoprecipitation (Rochon et al., 2006). Chromatography was as described under “Chromatography”. qPCR was performed with PR1 and Ubiquitin5 primers. PR-1 values were normalized against Ubiquitin5 (see Table 1 for primer sequence).
Although there are no decisive methods to test the stoichiometry of a protein in vivo, it was determined whether or not NPR1-dependent oligomers form on DNA in vivo by combining chromatin cross-linking, gel filtration, and qPCR (the 3C Method). The rationale was that, if an NPR1-dependent oligomer forms on the PR1 promoter in vivo, the presence of PR1 should be detectable by qPCR in the void fraction of an S300 after the chromatin had been cross-linked and sheared by sonication.

## O=C(O)c1ccccc1O [SA, Salicylic acid]
BTB/POZ-Δ513 interaction
  BTB/POZ-Δ513 interaction in pull-down: disrupted
NPR1 [1]; 1 mM SA, catechol, 4-hydroxy benzoic acid or methyl-salicylate, 30 min, DTT concentration not given
  conformation of NPR1 (S300 elution profile): redistributed to the included volume
NPR1 [1]; 50 mM EDTA 30 min, then 1 mM SA 30 min
  SA-induced NPR1 conformation change after metal chelation: abolished the NPR1 conformation change
NPR1 [2]
  amount of SA bound to NPR1 above a no-protein experiment: ~4 orders of magnitude
NPR1 [2]; saturation binding
  maximum binding (Bmax): 0.96±0.01 mol SA per mol NPR1
[3]
  NPR1-dependent oligomer on the PR-1 promoter (void fraction, qPCR): not after a treatment with SA
